Test results taken from patent US9932309B2, “2-oxo-3,4-dihydropyridine-5-carboxylates and their use” (UNIVERSITE DE LILLE 2 DROIT ET SANTE, priority 2014, dated 2018).
Counter-ions that a name gives are not always drawn.

Key:
hTGR5 = biological target: T1, hTGR5 (Homo sapiens, UniProt Q8TDU6); assay: TGR5/CRE Luciferase Assay (hTGR5); assay type: cell-based; conditions: for EC50: HEK 293 cells co-transfected with pCMV tag4b-TGR5h and pCRE TA-Luciferase, overnight incubation; for hTGR5 % trans: percentage of the 10 μM LCA value, HEK 293 cells transfected with hTGR5
T1 construct: expressed in transfected cells; host or cells: HEK293 cells, transiently co-transfected with the pCRE TA-Luciferase reporter
T1 sequence (Q8TDU6 1-330): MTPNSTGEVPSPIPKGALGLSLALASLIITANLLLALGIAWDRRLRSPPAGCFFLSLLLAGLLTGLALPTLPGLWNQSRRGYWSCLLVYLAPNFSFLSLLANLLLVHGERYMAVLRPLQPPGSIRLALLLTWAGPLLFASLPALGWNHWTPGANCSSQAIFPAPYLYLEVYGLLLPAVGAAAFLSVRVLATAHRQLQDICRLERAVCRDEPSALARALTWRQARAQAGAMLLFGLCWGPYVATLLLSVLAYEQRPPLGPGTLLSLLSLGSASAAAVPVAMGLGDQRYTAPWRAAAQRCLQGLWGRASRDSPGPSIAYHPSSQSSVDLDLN
In short: (§1)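 cAMP-dependent luciferase luminescence was measured after overnight compound exposure (duplicate concentration series) and fitted to a four-parameter logistic equation. Cells: HEK293 transiently co-expressing hTGR5 or mTGR5 with a CRE reporter; lithocholic acid at 10 μM was the reference agonist.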

mTGR5 = biological target: T2, mTGR5 (Mus musculus, UniProt Q80SS6); assay: TGR5/CRE Luciferase Assay (mTGR5); assay type: cell-based; conditions: for mTGR5 % trans: percentage of the 10 μM LCA value, HEK 293 cells transfected with mTGR5; for EC50: HEK 293 cells co-transfected with pCMV AC6-TGR5m and pCRE TA-Luciferase, overnight incubation
T2 construct: expressed in transfected cells; host or cells: HEK293 cells, transiently co-transfected with the pCRE TA-Luciferase reporter
T2 sequence (Q80SS6 1-329): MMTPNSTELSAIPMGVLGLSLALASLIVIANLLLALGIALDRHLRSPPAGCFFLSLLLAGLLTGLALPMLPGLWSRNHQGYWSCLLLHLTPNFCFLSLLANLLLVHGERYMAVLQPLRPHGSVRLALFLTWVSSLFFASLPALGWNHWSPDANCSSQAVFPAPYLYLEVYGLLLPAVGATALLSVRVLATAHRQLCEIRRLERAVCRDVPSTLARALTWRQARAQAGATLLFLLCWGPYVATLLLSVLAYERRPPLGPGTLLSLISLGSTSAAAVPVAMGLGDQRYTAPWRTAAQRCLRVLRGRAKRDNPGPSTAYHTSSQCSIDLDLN
In short: as §1

| SMILES | EC50 (hTGR5) [nM] | hTGR5 % trans (hTGR5) [%] | mTGR5 % trans (mTGR5) [%] | EC50 (mTGR5) [nM] |
| --- | --- | --- | --- | --- |
| CC1=C(C(=O)OCc2ccccc2)C(c2ccc(Cl)cc2)CC(=O)N1CC1CN(C)C1 (stereo not shown) [Compound 47, Benzyl 4-(4-chlorophenyl)-6-methyl-1-[(1-methylazetidin-3-yl)methyl]-2-oxo-3,4-dihydropyridine-5-carboxylate] | 6600 | 22 | 0 | – |
| CC1=C(C(=O)OCc2ccccc2)C(c2ccc(Cl)cc2)CC(=O)N1CC1C[N+](C)(C)C1.[I-] (stereo not shown) [Compound 48, Benzyl 4-(4-chlorophenyl)-1-[(1,1-dimethylazetidin-1-ium-3-yl)methyl]-6-methyl-2-oxo-3,4-dihydropyridine-5-carboxylate iodide] | 12000 | 13 | 0 | – |
| CC1=C(C(=O)OCc2ccccc2)C(c2ccc(Cl)cc2)CC(=O)N1CCNC(=O)OC(C)(C)C (stereo not shown) [Compound 52, Benzyl 1-[2-(tert-butoxycarbonylamino)ethyl]-4-(4-chlorophenyl)-6-methyl-2-oxo-3,4-dihydropyridine-5-carboxylate] | 2500 | 18 | 0 | – |
| CC1=C(C(=O)OCc2ccccc2)C(c2ccc(Cl)cc2)CC(=O)N1CCN (stereo not shown) [Compound 53, Hydrochloride salt of benzyl 1-(2-aminoethyl)-4-(4-chlorophenyl)-6-methyl-2-oxo-3,4-dihydropyridine-5-carboxylate] | 4300 | 16 | 0 | – |
| CC1=C(C(=O)OCc2ccccc2)C(c2ccc(Cl)cc2)CC(=O)N1CCCN(C)C (stereo not shown) [Compound 54, Benzyl 4-(4-chlorophenyl)-1-[3-(dimethylamino)propyl]-6-methyl-2-oxo-3,4-dihydropyridine-5-carboxylate] | 4200 | 10 | 0 | – |
| CC1=C(C(=O)OCc2ccccc2)C(c2ccc(Cl)cc2)CC(=O)N1CCN1CCCC1 (stereo not shown) [Compound 55, Benzyl 4-(4-chlorophenyl)-6-methyl-2-oxo-1-(2-pyrrolidin-1-ylethyl)-3,4-dihydropyridine-5-carboxylate] | 4500 | 47 | 5 | – |
| CC1=C(C(=O)OCc2ccccc2)C(c2ccc(Cl)cc2)CC(=O)N1CCN1CCCCC1 (stereo not shown) [Compound 56, Benzyl 4-(4-chlorophenyl)-6-methyl-2-oxo-1-[2-(1-piperidyl)ethyl]-3,4-dihydropyridine-5-carboxylate] | 3600 | 50 | 3 | – |
| CC1=C(C(=O)OCc2ccccc2)C(c2ccc(Cl)cc2)CC(=O)N1CC(=O)OC(C)(C)C (stereo not shown) [Compound 58, Benzyl 1-(2-tert-butoxy-2-oxo-ethyl)-4-(4-chlorophenyl)-6-methyl-2-oxo-3,4-dihydropyridine-5-carboxylate] | 1340 | 50 | 70 | 420 |
| CC1=C(C(=O)OCc2ccccc2)C(c2ccc(Cl)cc2)CC(=O)N1CC(N)=O (stereo not shown) [Compound 60, Benzyl 1-(2-amino-2-oxo-ethyl)-4-(4-chlorophenyl)-6-methyl-2-oxo-3,4-dihydropyridine-5-carboxylate] | 13500 | 42 | 32 | 14400 |
| CC1=C(C(=O)OCc2ccccc2)C(c2ccc(Cl)cc2)CC(=O)N1CCS(C)(=O)=O (stereo not shown) [Compound 62, Benzyl 4-(4-chlorophenyl)-6-methyl-1-(2-methylsulfonylethyl)-2-oxo-3,4-dihydropyridine-5-carboxylate] | 2300 | 69 | 42 | 5900 |
| CCOC(=O)C1=C(c2ccccc2)N(C)C(=O)CC1c1ccc(Cl)cc1 (stereo not shown) [Example 20, Ethyl 4-(4-chlorophenyl)-1-methyl-2-oxo-6-phenyl-3,4-dihydropyridine-5-carboxylate] | 3000 | 42 | 53 | 2500 |
| COCCN1C(=O)CC(c2ccc(Cl)cc2)C(C(=O)NCc2ccccc2)=C1C (stereo not shown) [Example 75, N-benzyl-4-(4-chlorophenyl)-1-(2-methoxyethyl)-6-methyl-2-oxo-3,4-dihydropyridine-5-carboxamide] | 7800 | 34 | 25 | 18300 |
| COCCN1C(=O)CC(c2ccc(Cl)cc2)C(C(=O)N2CCCc3ccccc32)=C1C (stereo not shown) [Example 77, 4-(4-chlorophenyl)-5-(3,4-dihydro-2H-quinoline-1-carbonyl)-1-(2-methoxyethyl)-6-methyl-3,4-dihydropyridin-2-one] | 2900 | 71 | 73 | 12300 |

Second part, the compound after the results:

| EC50 (hTGR5) [nM] | hTGR5 % trans (hTGR5) [%] | mTGR5 % trans (mTGR5) [%] | EC50 (mTGR5) [nM] | SMILES |
| --- | --- | --- | --- | --- |
| 1100 | 21 | 18 | 12400 | CC1=C(C(=O)OCc2ccccc2)C(c2ccc(Cl)cc2)CC(=O)N1Cc1nc(C)no1 (stereo not shown) [Compound 59, Benzyl 4-(4-chlorophenyl)-6-methyl-1-[(3-methyl-1,2,4-oxadiazol-5-yl)methyl]-2-oxo-3,4-dihydropyridine-5-carboxylate] |
| 2200 | 50 | 57 | 2000 | CC1=C(C(=O)OCc2ccccc2)C(c2ccc(Cl)cc2)CC(=O)N1CC#N (stereo not shown) [Compound 63, Benzyl 4-(4-chlorophenyl)-1-(cyanomethyl)-6-methyl-2-oxo-3,4-dihydropyridine-5-carboxylate] |
| 200 | 62 | 78 | 100 | COc1ccccc1COC(=O)C1=C(C)N(Cc2ccco2)C(=O)CC1c1ccc(Cl)cc1 (stereo not shown) [Compound 66] |
| 300 | 105 | 104 | 400 | CCOC(=O)CN1C(=O)CC(c2ccc(Cl)cc2)C(C(=O)OCc2ccccc2OC)=C1C (stereo not shown) [Compound 69, (2-methoxyphenyl)methyl 4-(4-chlorophenyl)-1-(2-ethoxy-2-oxo-ethyl)-6-methyl-2-oxo-3,4-dihydropyridine-5-carboxylate] |
| 70 | 65 | 102 | 80 | COc1ccccc1COC(=O)C1=C(C)N(CC2CC2)C(=O)CC1c1ccc(Cl)cc1 (stereo not shown) [Compound 70, o-methoxybenzyl 4-(4-chlorophenyl)-1-(cyclopropylmethyl)-6-methyl-2-oxo-3,4-dihydropyridine-5-carboxylate] |
| 200 | 94 | 85 | 800 | COCCCN1C(=O)CC(c2ccc(Cl)cc2)C(C(=O)OCc2ccccc2OC)=C1C (stereo not shown) [Compound 71, (2-methoxyphenyl)methyl 4-(4-chlorophenyl)-1-(3-methoxypropyl)-6-methyl-2-oxo-3,4-dihydropyridine-5-carboxylate] |
| 80 | 99 | 92 | 200 | COc1ccccc1COC(=O)C1=C(C)N(CC2OCCO2)C(=O)CC1c1ccc(Cl)cc1 (stereo not shown) [Compound 72, (2-methoxyphenyl)methyl 4-(4-chlorophenyl)-1-(1,3-dioxolan-2-ylmethyl)-6-methyl-2-oxo-3,4-dihydropyridine-5-carboxylate] |
